Source: the supplement of paper PMC10307832

Legend:
Test in all cases: relative viability (nuclei count vs DMSO), 5 days (fraction); higher = more cells survive
Bemcentinib + Alpelisib = compound: Nc1nc(Nc2ccc3c(c2)CC[C@@H](N2CCCC2)CC3)nn1-c1cc2c(nn1)-c1ccccc1CCC2 [Bemcentinib] + Cc1nc(NC(=O)N2CCC[C@H]2C(N)=O)sc1-c1ccnc(C(C)(C)C(F)(F)F)c1 [Alpelisib] (partner 2 µM)
In short: (§1)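 Lung cancer cell lines were pin-tool dosed in 1536-well plates on the day after seeding, with either a lone drug or a fixed anchor-drug dose plus five library-drug doses (not always all listed) in √10 steps. Nuclei were counted on 4× images after 5 days. Relative viability is the ratio of treated-well to vehicle-well nuclei counts, with each value a median of duplicate plates.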

[1] = compound: CC1=CC=C(C=C1)C(=O)CN2C3=C(CCCC3)SC2=N [Pifithrin_alpha] + C[C@]1(O)C[C@@H](c2nc(-c3ccc4ccc(-c5ccccc5)nc4c3)c3c(N)nccn32)C1 [Linsitinib] (partner 1 µM)
In short: as §1

Bemcentinib + Foretinib = compound: Nc1nc(Nc2ccc3c(c2)CC[C@@H](N2CCCC2)CC3)nn1-c1cc2c(nn1)-c1ccccc1CCC2 [Bemcentinib] + COc1cc2c(Oc3ccc(NC(=O)C4(C(=O)Nc5ccc(F)cc5)CC4)cc3F)ccnc2cc1OCCCN1CCOCC1 [Foretinib] (partner 0.25 µM)
In short: as §1

Axitinib + Navitoclax = compound: CNC(=O)c1ccccc1Sc1ccc2c(/C=C/c3ccccn3)n[nH]c2c1 [Axitinib] + CC1(C)CCC(c2ccc(Cl)cc2)=C(CN2CCN(c3ccc(C(=O)NS(=O)(=O)c4ccc(N[C@H](CCN5CCOCC5)CSc5ccccc5)c(S(=O)(=O)C(F)(F)F)c4)cc3)CC2)C1 [Navitoclax] (partner 0.5 µM)
In short: as §1

Cell Line	relative viability (Bemcentinib + Alpelisib; first compound 0.04 µM)	relative viability (Bemcentinib + Alpelisib; first compound 0.1265 µM)	relative viability (Bemcentinib + Alpelisib; first compound 0.4 µM)	relative viability (Bemcentinib + Alpelisib; first compound 1.265 µM)	relative viability (Bemcentinib + Alpelisib; first compound 4 µM)	relative viability ([1]; first compound 1 µM)	relative viability ([1]; first compound 3.162 µM)	relative viability ([1]; first compound 10 µM)	relative viability ([1]; first compound 31.62 µM)	relative viability ([1]; first compound 100 µM)	relative viability (Bemcentinib + Foretinib; first compound 0.04 µM)	relative viability (Bemcentinib + Foretinib; first compound 0.1265 µM)	relative viability (Bemcentinib + Foretinib; first compound 0.4 µM)	relative viability (Bemcentinib + Foretinib; first compound 1.265 µM)	relative viability (Bemcentinib + Foretinib; first compound 4 µM)	relative viability (Axitinib + Navitoclax; first compound 0.005 µM)	relative viability (Axitinib + Navitoclax; first compound 0.01581 µM)	relative viability (Axitinib + Navitoclax; first compound 0.05 µM)	relative viability (Axitinib + Navitoclax; first compound 0.1581 µM)	relative viability (Axitinib + Navitoclax; first compound 0.5 µM)
EBC-1	0.843	0.863	0.825	0.849	0.76	0.912	0.878	0.861	0.561	0.576	0.0932	0.0983	0.108	0.0894	0.103	0.468	0.443	0.453	0.509	0.554
NCI-H1915	1.15	1.13	1.1	1.07	1.08	1.01	1.08	1.08		1.14	1.11	1.08	1.15	1.07	1.17	0.802	0.778	0.77	0.753	0.812
NCI-H2087	0.886	1.43	1.09	0.949	1.13	0.765	1.03	0.966	0.776	0.778	1.08	1.32	1.14	1.21	0.937	1.24	1.1	1.04	0.899	1.07
LCLC-97TM1	0.313	0.226		0.289	0.265		0.207	0.206		0.225	0.941	0.97	0.929	0.964	1.02	0.485	0.506	0.475	0.489	0.534
NCI-H1734	1.04	0.74	0.718	0.372	0.514	0.994	0.89	0.862	0.611	0.889	0.854	0.916	0.818	0.838	0.952	0.903	0.839	0.843	0.861	0.971
EKVX	0.913	1.01	0.929	0.973	0.972	1.05	0.644	0.705	0.615	0.739	0.837	0.488	0.842	1.11	0.834	1.07	0.962	0.823	0.921	0.961
201T	1.01	0.987	1.03	1.08	1.04	0.956	0.792	0.744	0.689	0.731	1.07	1.33	1.24	1.12	1.11	1.21	1.18	1.18	1.27	1.23
NCI-H2085	0.905	1.08	1.02	0.983	0.967	0.829	0.934	0.768	0.797	0.859	1.08	1.11	0.915	1.01	0.889	1.09	1.28	1.26	1.03	1.18
NCI-H1395	1	1.26	1.12	1.03	1.29		1.05	1.03	0.638	0.974	0.994	1.05	1.04	0.934	1.05	1.14	1.21	1.02	1.01	1.57
NCI-H2405	0.728	0.732	0.847	0.756	0.72		0.869	0.867	0.804	0.776	1.05	1.02	1.03	1.12	1.04	0.913	0.933	0.881	0.857	1.11
NCI-H1299	1.1	1.07	1.09	1.1	1.08	1.04	1.09	1.01	0.813	0.998	1.09	1.13	1.13	1.13	1.09	1.14	1.04	1.07	1.04	1.07
EMC-BAC-2	0.833	0.756	0.817	0.788	0.803	0.799	0.859	0.765	0.745	0.927	0.972	1.02	1.04	1.03	1.06	1.27	1.12	1.16	1.16	1.27
BEN	0.984	1.09	1.11	1.12	1.02	0.991	1.11	1.01	0.929	1.29	0.562	0.731	0.711	0.612	0.635	0.074	0.0723	0.0728	0.0721	0.0571
NCI-H1755	0.98	1.03	1.02	1.06	1.04	0.935	0.991	0.905	0.802	0.969	0.925	0.923	0.947	0.987	0.935	1.04	0.92	0.99	0.964	1
LU99A	0.453	0.584	0.591	0.542	0.569	0.539	0.64	0.619		0.529	0.751	0.763	0.778	0.816	0.837	0.858	0.805	0.83	0.773	0.902
NCI-H1793	0.684	0.927	0.691	0.742	0.66	0.896	0.7	0.812	0.787	0.964	0.816	0.726	0.772		0.693	0.438	0.386	0.424	0.514	0.504
NCI-H460	0.595	0.556	0.487	0.602	0.584	0.764	0.795	0.906		0.563	1.01	1.22	1.1	1.07	1	1.12	0.964	1.17	0.984	1.18
SK-LU-1	1.08	1.13	1.1	1.1	1.1	1.08	1.16	1.26	0.769	0.832	0.854	0.988	0.89	0.896	0.826	0.955	1.2	0.932	0.812	1.13
HARA	0.759	0.918	0.822	0.866	0.936	0.988	1.02	0.9	0.542	0.857	0.856	1.11	1.01	1.04	0.958	0.979	1.08	1.14	1.08	1.19
